Reference: article PMC8621101, “Inhibition of XPO-1 Mediated Nuclear Export through the Michael-Acceptor Character of Chalcones” (Pharmaceuticals, 2021)

Experiments:
[1] = Stability in phosphate-buffered solution (PBS); type: physicochemical
Excerpt: It has been described by performing kinetic measurements in α-X-2′3,4,4’-tetramethylchalcones that the nature of the substituent at position α of the chalcone affects their reactivity as electrophiles versus thiol groups. In such series, the α-COOEt substituent led to a similar reactivity as that of the α-H chalcone; the α-CH3 chalcone was poorly electrophilic, while the α-CN chalcone was the most electrophilic. Thus, in the naphthyl series (Figure 3), the synthesis of the chalcones where R1 = H, COOCH3, CH3 or CN was accomplished. The reaction of 1-(naphthalen-2-yl)ethan-1-one (11) with pyrimidine-5-carbaldehyde in the presence of Ba(OH)2 afforded α-H chalcone 9 in a 55% yield (Scheme 1). […] Reaction of the ester 12 with NH3/dioxane at 110 °C [29] led to the amide 14 that was further transformed into the chalcone 15. On the other hand, reaction of naphthalene 16 with propionyl chloride under Friedel–Crafts acylation conditions, as described, provided the 2-acyl derivative 17, together with a small proportion of its 1-isomer. This mixture of isomers reacted with pyrimidine-5-carbaldehyde to yield the α-CH3 chalcone 18 (30%). Finally, the synthesis of the α-CN derivative was addressed by the reaction of 2-methylnaphthoate (19) with acetonitrile to provide 3-oxopropanenitrile 20 [32], which was further transformed into the α-CN chalcone 21.

[2] = molecular target: T1, XPO1^C528S (Jurkat XPO1^C528S) (Homo sapiens, UniProt O14980, C528S); assay: RanBP1 immunofluorescence (XPO1-mediated nuclear export) in mutant XPO1^C528S Jurkat cells; type: cell-based; conditions: positive control at 1 μM, 3 h
T1 construct: CRISPR/Cas9 genome editing of the Jurkat cell line was performed as in Neggers et al. [43] to generate a XPO1^C528S mutant cell line; endogenous in cells; host or cells: Jurkat cells genome-edited by CRISPR/Cas9 at the XPO1 locus (XPO1^C528S)
T1 sequence (O14980 whole entry C528S): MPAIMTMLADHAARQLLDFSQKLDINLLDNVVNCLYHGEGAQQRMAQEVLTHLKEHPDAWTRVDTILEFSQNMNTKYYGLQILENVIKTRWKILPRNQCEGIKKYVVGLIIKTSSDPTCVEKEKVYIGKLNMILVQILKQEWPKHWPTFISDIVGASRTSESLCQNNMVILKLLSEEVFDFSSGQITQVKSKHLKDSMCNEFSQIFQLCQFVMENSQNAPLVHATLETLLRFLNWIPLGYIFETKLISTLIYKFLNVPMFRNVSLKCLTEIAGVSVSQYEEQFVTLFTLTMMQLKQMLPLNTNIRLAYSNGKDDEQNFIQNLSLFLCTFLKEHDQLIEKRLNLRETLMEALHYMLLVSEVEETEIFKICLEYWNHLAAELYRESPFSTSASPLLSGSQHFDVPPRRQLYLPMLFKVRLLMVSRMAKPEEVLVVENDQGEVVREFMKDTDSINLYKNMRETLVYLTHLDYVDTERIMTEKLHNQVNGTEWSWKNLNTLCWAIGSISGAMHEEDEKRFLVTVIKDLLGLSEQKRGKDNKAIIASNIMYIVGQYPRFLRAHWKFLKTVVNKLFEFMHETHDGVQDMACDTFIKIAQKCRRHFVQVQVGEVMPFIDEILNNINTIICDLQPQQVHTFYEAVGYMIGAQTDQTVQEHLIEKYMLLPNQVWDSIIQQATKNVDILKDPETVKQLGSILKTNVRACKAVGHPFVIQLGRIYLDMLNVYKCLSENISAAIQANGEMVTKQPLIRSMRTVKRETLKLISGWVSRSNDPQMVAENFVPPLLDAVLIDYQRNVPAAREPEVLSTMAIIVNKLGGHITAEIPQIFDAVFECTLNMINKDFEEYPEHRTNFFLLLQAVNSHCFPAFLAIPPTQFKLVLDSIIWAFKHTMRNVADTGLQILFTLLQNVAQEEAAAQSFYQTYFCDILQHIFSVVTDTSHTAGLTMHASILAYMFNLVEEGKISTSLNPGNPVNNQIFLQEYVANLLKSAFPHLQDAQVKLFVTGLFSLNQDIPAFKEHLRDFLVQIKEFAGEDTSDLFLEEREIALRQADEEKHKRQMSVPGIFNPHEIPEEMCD
Protocol: (§1) The effect of the mutation on the activity of the inhibitors was assessed by the visualization of the subcellular localization of the XPO1 cargo RanBP1.
(§2) Stably transfected HeLa NLSSV40-AcGFP-NESPKI were cultured as described in Vercruysse et al.
(§3) Cells were harvested at 400× g, washed in PBS and then transferred into an 8-well µ-Slide (Ibidi) pretreated with 0.1% (w/v) poly-L-lysine (Sigma). Cells were allowed to adhere to the slides and then subsequently fixed (4% PFA in PBS), washed and permeabilized (0.2% Triton X-100 in PBS). Further immunofluorescence staining was then performed according to standard procedures. Employed antibodies were rabbit anti-RanBP1 (ab97659, Abcam, Cambridge, UK) at a 1:500 dilution and secondary Alexa Fluor 488 goat anti-rabbit antibody (A11008, Invitrogen, ThermoFisher Scientific). Cell nuclei were counterstained with DAPI, and the samples were imaged by confocal microscopy on a Leica TCS SP5 confocal microscope (Leica Microsystems, Weitzlar, Germany), employing a HCX PL APO 63× (NA 1.2) water immersion objective. Subsequently, fluorescence was read on an ArrayScan XTI High Content Reader (Thermo Fisher Scientific, Waltham, MA, USA). Nuclear and cytoplasmic compartments were segmented, and their average pixel intensities in the green channel were quantitated similarly as for the XPO1 phenotypic reporter assay.

DND-41 cells = assay: Cell proliferation assay (IncuCyte confluence), DND-41; type: cell-based; conditions: DND41; DND-41 acute lymphoblastic leukemia; 72 h; mean of two independent experiments ± SEM; read-out: IC50 antiproliferative activity DND-41
Protocol: (§4) Cancer cell lines HCT-116, NCI-H460, HL-60, K-562 and Z-138 were acquired from the American Type Culture Collection (ATCC, Manassas, VA, USA). The DND-41 cell line was purchased from the Deutsche Sammlung von Mikroorganismen und Zellkulturen (DSMZ Leibniz-Institut, Brunswick, Germany), and the HAP-1 cell line was ordered from Horizon Discovery (Horizon Discovery Group, Water Beach, UK). All cell lines were cultured as recommended by the suppliers. Culture media were purchased from Gibco Life Technologies and supplemented with 10% fetal bovine serum (HyClone, GE Healthcare Life Sciences, Chicago, Illinois, USA).
(§5) Adherent cell lines HCT-116, NCI-H460 and Hap-1 cells were seeded at a density between 500 and 1500 cells per well in 384-well tissue culture plates (Greiner). After overnight incubation, cells were treated with different concentrations of the test compounds. Suspension cell lines HL-60, K-562, Z-138 and DND-41 were seeded at densities ranging from 2500 to 5500 cells per well in 384-well culture plates containing the test compounds at the same concentration points.

Hap-1 cells = assay: Cell proliferation assay (IncuCyte confluence), Hap-1; type: cell-based; conditions: Homo sapiens, HAP1; Hap-1 chronic myeloid leukemia; 72 h; mean of two independent experiments ± SEM; read-out: IC50 antiproliferative activity Hap-1
Protocol: as §4, §5

HL-60 cells = assay: Cell proliferation assay (IncuCyte confluence), HL-60; type: cell-based; conditions: Homo sapiens; HL-60 acute myeloid leukemia; 72 h; mean of two independent experiments ± SEM; read-out: IC50 antiproliferative activity HL-60
Protocol: as §4, §5

XPO1 (Jurkat XPO1^WT) = molecular target: T2, XPO1 (Jurkat XPO1^WT) (Homo sapiens, UniProt O14980); assay: RanBP1 immunofluorescence (XPO1-mediated nuclear export) in wild-type Jurkat cells; type: cell-based; conditions: positive control at 1 μM, 3 h
T2 construct: RanBP1 immunofluorescence staining was performed on both wild type and mutant XPO1^C528S Jurkat cells; endogenous in cells; host or cells: wild-type Jurkat leukemia cells
Protocol: as §1, §2, §3

Z-138 cells = assay: Cell proliferation assay (IncuCyte confluence), Z-138; type: cell-based; conditions: Homo sapiens; Z-138 non-Hodgkin lymphoma; 72 h; mean of two independent experiments ± SEM; read-out: IC50 antiproliferative activity Z-138
Protocol: as §4, §5

NCI-H460 cells = assay: Cell proliferation assay (IncuCyte confluence), NCI-H460; type: cell-based; conditions: Homo sapiens; NCI-H460 lung carcinoma; 72 h; mean of two independent experiments ± SEM; read-out: IC50 antiproliferative activity NCI-H460
Protocol: as §4, §5

K-562 cells = assay: Cell proliferation assay (IncuCyte confluence), K-562; type: cell-based; conditions: Homo sapiens, K562; K-562 chronic myeloid leukemia; 72 h; mean of two independent experiments ± SEM; read-out: IC50 antiproliferative activity K-562
Protocol: as §4, §5

HCT-116 cells = assay: Cell proliferation assay (IncuCyte confluence), HCT-116; type: cell-based; conditions: Homo sapiens; HCT-116 colorectal carcinoma; 72 h; mean of two independent experiments ± SEM; read-out: IC50 antiproliferative activity HCT-116
Protocol: as §4, §5

Stability in PBS [1] | Subcellular localization of RanBP1, mutant XPO1^C528S Jurkat [2] | IC50 (HL-60 cells) | Subcellular localization of RanBP1, wild-type Jurkat (XPO1 (Jurkat XPO1^WT)) | IC50 (NCI-H460 cells) | IC50 (K-562 cells) | IC50 (HCT-116 cells) | SMILES | IC50 (DND-41 cells) | IC50 (Hap-1 cells) | IC50 (Z-138 cells)
very unstable and readily decomposed |  |  |  |  |  |  | N#C/C(=C\c1cncnc1)C(=O)c1ccc2ccccc2c1 [Compound 21, (E)-2-Cyano-1-(naphthalene-2-yl)-3-(pyrimidin-5-yl)prop-2-en-1-one] |  |  | 
 | RanBP1 remained in the cytoplasm | 110 ± 100 nM | RanBP1 was accumulated in the nucleus | 120 ± 80 nM | 90 nM | 100 ± 100 nM | O=C(/C=C\n1cnc(-c2cc(C(F)(F)F)cc(C(F)(F)F)c2)n1)NNc1cnccn1 [KPT-330, selinexor, reference compound] | 50 nM | 70 ± 30 nM | 400 ± 400 nM
